# Results from ChEMBL document CHEMBL1201862, “PubChem BioAssay data set” (2004).
#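 Interpolation was linear, between the two tested concentrations surrounding the appropriate level; five concentrations were tested over 48 hours in 96-well plates. At the GI50, growth is halved.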 Active and inactive are the calls of the source. Cut-off read from the data, not from the text of the source: active = GI50 up to about 1.1 µM and inactive = higher.
# Columns and labels:
# Test in all cases: growth of human tumour cells (NCI), 48 h
# [1] = tested on: OVCAR-5
# [2] = tested on: DLD-1
# [3] = tested on: COLO 205
# [4] = tested on: A549
# [5] = tested on: EKVX
# [6] = tested on: HOP-62
# [7] = tested on: SF-539
# [8] = tested on: LOX IMVI
# [9] = tested on: SR
# [10] = tested on: K562
# [11] = tested on: SK-MEL-28
# [12] = tested on: KM-20L2
# [13] = tested on: UO-31
# [14] = tested on: NCI-H226
# [15] = tested on: HCT-15
# [16] = tested on: RXF 393
# [17] = tested on: OVCAR-8
# [18] = tested on: 786-0
# [19] = tested on: MOLT-4
# [20] = tested on: IGROV-1
# [21] = tested on: KM12
# [22] = tested on: RXF 631
# [23] = tested on: U-251
# [24] = tested on: TK-10
# [25] = tested on: M19-MEL
# [26] = tested on: NCI-H23
# [27] = tested on: HOP-18
# [28] = tested on: NCI-H460
# [29] = tested on: OVCAR-4
# [30] = tested on: SF-268
# [31] = tested on: HL-60
# [32] = tested on: HT-29
# [33] = tested on: Malme-3M
# [34] = tested on: SNB-19
# [35] = tested on: CAKI-1
# [36] = tested on: SK-OV-3
# [37] = tested on: HCT-116
# [38] = tested on: LXFL 529
# [39] = tested on: M14
# [40] = tested on: SNB-78
# [41] = tested on: SF-295
# [42] = tested on: SN12C
# [43] = tested on: SW-620
# [44] = tested on: HOP-92
# [45] = tested on: OVCAR-3
# [46] = tested on: ACHN
# [47] = tested on: CCRF-CEM
# [48] = tested on: HCC 2998
# [49] = tested on: DMS-114
# [50] = tested on: SK-MEL-5
# [51] = tested on: UACC-257
# [52] = tested on: UACC-62
# [53] = tested on: SK-MEL-2
# [54] = tested on: SNB-75
# [55] = tested on: A498
# [56] = tested on: DMS-273
# [57] = tested on: RPMI-8226
# [58] = tested on: NCI-H522
structure (smiles),measurement,setting,value
CC(C)(C)C1=CC(CCC(=O)Nc2ccccc2[N+](=O)[O-])=NC(S)N1 (centres undefined),GI50,[1],> 100 µM (inactive)
same,GI50,[2],> 100 µM (inactive)
same,GI50,[3],> 100 µM (inactive)
same,GI50,[4],> 100 µM (inactive)
same,GI50,[5],> 100 µM (inactive)
same,GI50,[6],> 100 µM (inactive)
same,GI50,[7],> 100 µM (inactive)
same,GI50,[8],> 100 µM (inactive)
same,GI50,[9],> 100 µM (inactive)
same,GI50,[10],> 100 µM (inactive)
same,GI50,[11],> 100 µM (inactive)
same,GI50,[12],> 100 µM (inactive)
same,GI50,[13],> 100 µM (inactive)
same,GI50,[14],> 100 µM (inactive)
same,GI50,[15],> 100 µM
same,GI50,[16],> 100 µM (inactive)
same,GI50,[17],> 100 µM (inactive)
same,GI50,[18],> 100 µM (inactive)
same,GI50,[19],> 100 µM (inactive)
same,GI50,[20],> 100 µM (inactive)
same,GI50,[21],> 100 µM (inactive)
same,GI50,[22],> 100 µM (inactive)
same,GI50,[23],> 100 µM (inactive)
same,GI50,[24],> 100 µM (inactive)
same,GI50,[25],> 100 µM (inactive)
same,GI50,[26],> 100 µM (inactive)
same,GI50,[27],> 100 µM (inactive)
same,GI50,[28],> 100 µM (inactive)
same,GI50,[29],> 100 µM (inactive)
same,GI50,[30],> 100 µM (inactive)
same,GI50,[31],> 100 µM (inactive)
same,GI50,[32],> 100 µM (inactive)
same,GI50,[33],> 100 µM (inactive)
same,GI50,[34],> 100 µM (inactive)
same,GI50,[35],> 100 µM (inactive)
same,GI50,[36],> 100 µM (inactive)
same,GI50,[37],> 100 µM (inactive)
same,GI50,[38],> 100 µM (inactive)
same,GI50,[39],> 100 µM (inactive)
same,GI50,[40],> 100 µM (inactive)
same,GI50,[41],> 100 µM (inactive)
same,GI50,[42],> 100 µM (inactive)
same,GI50,[43],> 100 µM (inactive)
same,GI50,[44],> 100 µM (inactive)
same,GI50,[45],> 100 µM (inactive)
same,GI50,[46],> 100 µM (inactive)
same,GI50,[47],> 100 µM (inactive)
same,GI50,[48],> 100 µM (inactive)
same,GI50,[49],> 100 µM (inactive)
same,GI50,[50],> 100 µM (inactive)
same,GI50,[51],> 100 µM (inactive)
same,GI50,[52],> 100 µM (inactive)
same,GI50,[53],> 100 µM (inactive)
CC(=O)NNc1nc(C)c(C(=O)/C=C/c2ccc(Cl)c(Cl)c2)s1,GI50,[1],> 100 µM (inactive)
same,GI50,[2],> 100 µM (inactive)
same,GI50,[3],> 100 µM (inactive)
same,GI50,[4],> 100 µM (inactive)
same,GI50,[5],> 100 µM (inactive)
same,GI50,[6],> 100 µM (inactive)
same,GI50,[7],> 100 µM (inactive)
same,GI50,[8],> 100 µM (inactive)
same,GI50,[10],> 100 µM (inactive)
same,GI50,[54],> 100 µM (inactive)
same,GI50,[11],> 100 µM (inactive)
same,GI50,[12],> 100 µM (inactive)
same,GI50,[13],> 100 µM (inactive)
same,GI50,[15],> 100 µM
same,GI50,[16],> 100 µM (inactive)
same,GI50,[17],> 100 µM (inactive)
same,GI50,[18],> 100 µM (inactive)
same,GI50,[19],> 100 µM (inactive)
same,GI50,[20],> 100 µM (inactive)
same,GI50,[21],> 100 µM (inactive)
same,GI50,[22],> 100 µM (inactive)
same,GI50,[23],> 100 µM (inactive)
same,GI50,[24],> 100 µM (inactive)
same,GI50,[25],> 100 µM (inactive)
same,GI50,[26],> 100 µM (inactive)
same,GI50,[27],> 100 µM (inactive)
same,GI50,[28],> 100 µM (inactive)
same,GI50,[30],> 100 µM (inactive)
same,GI50,[31],> 100 µM (inactive)
same,GI50,[32],> 100 µM (inactive)
same,GI50,[33],> 100 µM (inactive)
same,GI50,[34],> 100 µM (inactive)
same,GI50,[55],> 100 µM (inactive)
same,GI50,[35],> 100 µM (inactive)
same,GI50,[36],> 100 µM (inactive)
same,GI50,[56],> 100 µM (inactive)
same,GI50,[40],> 100 µM (inactive)
same,GI50,[57],> 100 µM (inactive)
same,GI50,[41],> 100 µM (inactive)
same,GI50,[42],> 100 µM (inactive)
same,GI50,[43],> 100 µM (inactive)
same,GI50,[44],> 100 µM (inactive)
same,GI50,[45],> 100 µM (inactive)
same,GI50,[46],> 100 µM (inactive)
same,GI50,[47],70.5 µM (inactive)
same,GI50,[48],> 100 µM (inactive)
same,GI50,[49],> 100 µM (inactive)
same,GI50,[50],> 100 µM (inactive)
same,GI50,[51],> 100 µM (inactive)
same,GI50,[52],> 100 µM (inactive)
same,GI50,[58],95.9 µM (inactive)
same,GI50,[53],> 100 µM (inactive)
Cc1ccc(N2C(=O)/C(=C/c3ccc(N(CCC#N)CCC#N)cc3C)N=C2c2cc([N+](=O)[O-])ccc2Cl)cc1,GI50,[1],> 100 µM (inactive)
same,GI50,[2],> 100 µM (inactive)
same,GI50,[3],> 100 µM (inactive)
same,GI50,[4],> 100 µM (inactive)
same,GI50,[6],> 100 µM (inactive)
same,GI50,[7],> 100 µM (inactive)
same,GI50,[9],58.2 µM (inactive)
same,GI50,[10],> 100 µM (inactive)
same,GI50,[54],> 100 µM (inactive)
same,GI50,[11],> 100 µM (inactive)
same,GI50,[13],> 100 µM (inactive)
same,GI50,[14],> 100 µM (inactive)
same,GI50,[15],> 100 µM
same,GI50,[17],> 100 µM (inactive)
same,GI50,[18],> 100 µM (inactive)
same,GI50,[19],91.2 µM (inactive)
same,GI50,[20],> 100 µM (inactive)
same,GI50,[21],> 100 µM (inactive)
same,GI50,[22],> 100 µM (inactive)
same,GI50,[23],> 100 µM (inactive)
same,GI50,[24],> 100 µM (inactive)
same,GI50,[25],> 100 µM (inactive)
same,GI50,[26],> 100 µM (inactive)
same,GI50,[27],> 100 µM (inactive)
same,GI50,[28],> 100 µM (inactive)
same,GI50,[29],> 100 µM (inactive)
same,GI50,[30],> 100 µM (inactive)
same,GI50,[31],> 100 µM (inactive)
same,GI50,[32],> 100 µM (inactive)
same,GI50,[33],> 100 µM (inactive)
same,GI50,[34],> 100 µM (inactive)
same,GI50,[55],> 100 µM (inactive)
same,GI50,[35],56 µM (inactive)
same,GI50,[36],> 100 µM (inactive)
same,GI50,[37],> 100 µM (inactive)
same,GI50,[38],> 100 µM (inactive)
same,GI50,[56],> 100 µM (inactive)
same,GI50,[39],> 100 µM (inactive)
same,GI50,[40],> 100 µM (inactive)
same,GI50,[57],> 100 µM (inactive)
same,GI50,[41],> 100 µM (inactive)
same,GI50,[42],> 100 µM (inactive)
same,GI50,[43],> 100 µM (inactive)
same,GI50,[44],> 100 µM (inactive)
same,GI50,[45],> 100 µM (inactive)
same,GI50,[46],> 100 µM (inactive)
same,GI50,[47],> 100 µM (inactive)
same,GI50,[48],> 100 µM (inactive)
same,GI50,[49],75.2 µM (inactive)
same,GI50,[50],> 100 µM (inactive)
same,GI50,[51],> 100 µM (inactive)
same,GI50,[52],> 100 µM (inactive)
same,GI50,[58],> 100 µM (inactive)
same,GI50,[53],> 100 µM (inactive)
Nc1ncn(C2C=C(CO)C(O)C2O)c(=O)n1 (centres undefined),GI50,[2],63.5 µM (inactive)
same,GI50,[3],29.3 µM (inactive)
same,GI50,[4],52.4 µM (inactive)
same,GI50,[5],> 100 µM (inactive)
same,GI50,[6],35.1 µM (inactive)
same,GI50,[7],63.5 µM (inactive)
same,GI50,[9],26.7 µM (inactive)
same,GI50,[10],41.6 µM (inactive)
same,GI50,[54],> 100 µM (inactive)
same,GI50,[11],> 100 µM (inactive)
same,GI50,[12],66.1 µM (inactive)
same,GI50,[13],92.7 µM (inactive)
same,GI50,[14],> 100 µM (inactive)
same,GI50,[15],54.2 µM
same,GI50,[16],> 100 µM (inactive)
same,GI50,[17],45.5 µM (inactive)
same,GI50,[18],63.1 µM (inactive)
same,GI50,[19],59.4 µM (inactive)
same,GI50,[20],84.5 µM (inactive)
same,GI50,[21],> 100 µM (inactive)
same,GI50,[22],47.6 µM (inactive)
same,GI50,[23],> 100 µM (inactive)
same,GI50,[24],> 100 µM (inactive)
same,GI50,[25],> 100 µM (inactive)
same,GI50,[27],> 100 µM (inactive)
same,GI50,[28],35 µM (inactive)
same,GI50,[29],85.9 µM (inactive)
same,GI50,[30],53 µM (inactive)
same,GI50,[31],31.6 µM (inactive)
same,GI50,[33],> 100 µM (inactive)
same,GI50,[34],> 100 µM (inactive)
same,GI50,[55],> 100 µM (inactive)
same,GI50,[35],40.7 µM (inactive)
same,GI50,[36],> 100 µM (inactive)
same,GI50,[37],40 µM (inactive)
same,GI50,[38],> 100 µM (inactive)
same,GI50,[56],> 100 µM (inactive)
same,GI50,[39],> 100 µM (inactive)
same,GI50,[40],> 100 µM (inactive)
same,GI50,[57],37 µM (inactive)
same,GI50,[42],32.4 µM (inactive)
same,GI50,[43],57.5 µM (inactive)
same,GI50,[45],> 100 µM (inactive)
same,GI50,[46],46.5 µM (inactive)
same,GI50,[48],89.7 µM (inactive)
same,GI50,[50],> 100 µM (inactive)
same,GI50,[51],> 100 µM (inactive)
same,GI50,[52],> 100 µM (inactive)
same,GI50,[58],37.2 µM (inactive)
same,GI50,[53],94.4 µM (inactive)
